What is called melting point is the temperature of the solid-liquid transition. As to `CC(=O)Nc1c(C(=O)c2ccccc2)[nH]c2cccc(Cl)c12`, the melting point is 221 to 222 °C.

Compound `O=C(c1ccc(-c2ccc3c(c2)CCN(C2CCN(Cc4ccccc4)CC2)C3=O)cc1)N1CCCC1` had a melting point of 197 to 198 °C.

Compound `COC(=O)CCc1ncccc1O` displayed a melting point of 94 to 96 °C.

In turn, `COc1ccc(-c2csc(Nc3cccnc3)n2)cc1OC` returned a melting point of 251 to 254 °C.

Consider `COc1ccc(C(C#Cc2ccccc2)CC(=O)O)cc1OC1CCCC1` (racemic), for which the melting point is 86 to 88 °C.

Consider `N#CCc1c[nH]c2ccc(NC(N)=S)cc12`, for which the melting point is 212 to 214 °C.

`Cc1ccc(S(=O)(=O)NC(=N)CCN2CCOC2=O)cc1` yielded a melting point of 129 to 134 °C.

With `CC(C)(CO)Oc1ccc2c(c1)CCc1c-2ccc2c1CCC2(C)C`, the melting point was in the range of 122 to 125 °C.

On to `O=C(Nc1ccc(-n2nc(C(F)(F)F)cc2-c2cccs2)cc1)c1ccncc1F`, for which the melting point is 153 to 155 °C.

With `Cc1cc(C)cc(NC(=O)Cc2ccc(OC3(C(=O)N[C@H](CC(C)C)C(=O)O)CCCC3)cc2)c1`, the melting point fell in the range of 119 to 120 °C.

`COc1ccc(CC(=O)c2ccc(OC)nc2)cc1` registered a melting point of 101 to 102 °C.

Turning to `CS(=O)(=O)c1ccc(-c2cnn(CC(F)(F)F)c(=O)c2NC2CCC2)cc1`, the melting point lay in the range of 169 to 172 °C.

`COC(=O)[C@H]1NC(=O)[C@H]1N` (relative stereo) returned a melting point of 59 to 61 °C.

The compound `O=C(O)COc1ccc(-c2coc3cc(OCC(=O)O)ccc3c2=O)cc1` showed a melting point of 270 to 272 °C.

Compound `CC(O)=C(C#N)C(=O)Nc1cc(Br)ccc1Br` came in with a melting point of 148 to 150 °C.

In turn, `CCCCOc1nc(N)c2[nH]c(=O)n(CCCCN(CCN3CCOCC3)Cc3cccc(CC(=O)OC)c3)c2n1` registered a melting point of 189 to 190 °C.

In the case of `O=C(O)/C=C/c1ccc(OCCOC2CC2)cc1Oc1ncc(C(F)(F)F)cc1Cl`, the melting point is 147 to 150 °C.

On to `COC1(c2cc(F)cc(S(=O)(=O)c3ccc4c(ccc(=O)n4C)c3)c2)CCOC(C)C1` (configuration not stated), for which the melting point lay in the range of 85 to 88 °C.

The compound `O=C1c2cccc3cc(F)cc(c23)C(=O)N1O` returned a melting point of 244 to 247 °C.

Turning to `CC1(C)COc2cc3c(cc21)C1(CO3)C(=O)Nc2ccccc21` (configuration not stated), the melting point is 95 to 100 °C.

Take `CC(=O)c1ccc2nc3ccc(C(=O)O)cc3c(=O)n2c1`: the melting point is 305 to 309 °C.

Take `COCc1nc(S)nc(O)c1OC`: the melting point was 187 to 189 °C.

Compound `CCCCCCCCCCCCCCCCOc1cc(NS(=O)(=O)c2cc(N)ccc2OCCOC)c(O)cc1C` returned a melting point of 142 to 144 °C.

`COc1cc2c(Nc3ccc(Cl)cc3F)ncnc2cc1OCCCNC(=O)OCC(C)C` yielded a melting point of 136 to 137 °C.

For the compound `NC(=S)c1ccc(CC(NC(=O)OCc2ccccc2)C(=O)NCC(=O)NCCC(=O)OCc2ccccc2)cc1` (racemic), the melting point lay in the range of 150 to 151 °C.

As to `CC(C)c1cccc(-c2ccc(F)cc2)c1/C=C/COc1ccc(C(=O)C(=O)O)cc1`, the melting point was 142 to 143 °C.

Turning to `COc1ccccc1CCNC(=O)c1ccc2c(c1)C=CC(C)(C)O2`, the melting point is 125 to 130 °C.

`CCN(c1ccc(OC)cc1)c1cc(NC)nc(C)n1` returned a melting point of 116 to 118 °C.

Compound `CC(C)(C)N1C(=O)OC2(CCN(Cc3ccccc3)CC2)C1(C)O` (configuration not stated) yielded a melting point of 179 to 181 °C.

Take `COC(=O)[C@@H]1[C@H](C(C)C)N1S(=O)(=O)c1ccc(C)cc1` (some centres not stated): the melting point is 52 to 54 °C.

As for `CCn1c(=O)c2c(nc(/C=C/c3ccc(OC)c(OC)c3OC)n2C)n(CC)c1=O`, the melting point was 153 to 154 °C.

`Cc1cc(Cl)c(S(C)(=O)=O)cc1C(=O)O` had a melting point of 180 to 183 °C.

As for `Cc1ccc(C(=O)Nc2ccc(CN3CCN(C)CC3)c(C(F)(F)F)c2)cc1C#Cc1ccc(NC2CC2)nn1`, the melting point was in the range of 68 to 69 °C.

Turning to `NC(=O)N1c2ccccc2C(Br)C(Br)c2ccccc21` (configuration not stated), the melting point was 144 °C.

Turning to `NC(=O)NCc1ccc(Nc2n[nH]c3ncnc(Nc4cccc(Cl)c4)c23)cc1`, the melting point was > 280 °C.

`NCCC(=O)Nc1ccc(Nc2ccccc2)cc1` registered a melting point of 108 to 110 °C.

As for `CC(Br)C(=O)NOCc1ccccc1` (configuration not stated), the melting point was 75.3 to 77.4 °C.

Compound `COc1ccc(C(=O)Nc2ccc(Cl)c(Cl)c2)cc1NCc1cccnc1` displayed a melting point of 145 to 147 °C.

As to `CC(C)c1c(CO)c(-c2ccc(F)cc2)nc2ccccc12`, the melting point was 208 to 210 °C.

As for `Cc1ccc([C@H](CC(=O)O)NC(=O)Nc2c(O)c3ccccc3n(Cc3ccccc3Cl)c2=O)cc1`, the melting point is 134 to 136 °C.

`CC(C)(C)C(NC(=O)c1ccc(Cl)cc1)NC(=NC#N)Nc1cccc(C(F)(F)F)c1` (configuration not stated) came in with a melting point of 184 to 186 °C.

Take `O=C1c2ccccc2CN1C1CCN(CCCCC2(C(=O)NCC(F)(F)F)c3ccccc3-c3ccccc32)CC1`: the melting point was 143 to 146 °C.

For `NCC1Cc2cc(-c3ccccc3)cc(-c3cc(Cl)ccc3Cl)c2O1` (configuration not stated), the melting point fell in the range of 159 to 162 °C.

The compound `CN(c1ccc(O)cc1)c1nc2cc(Cl)c(Cl)cc2nc1Cl` had a melting point of 176 °C.

As to `CCn1nc(C)cc1N`, the melting point lay within 95 to 96 °C.

For the compound `CN(C)C1(c2cccc(F)c2)CCC(=CC(=O)NCCCc2ccccc2)CC1` (configuration not stated), the melting point fell in the range of 129 to 131 °C.

With `NC(=O)c1ccc([N+](=O)[O-])c(C(N)=O)c1`, the melting point is 287 to 289 °C.

On to `CCSc1cc(C)nc(SCC)c1NC(=O)CSc1nc2cccc(S(C)(=O)=O)c2o1`, for which the melting point is 159 to 162 °C.

In turn, `Cn1ncc(/C=C/C(=O)Nc2ccc(Cc3ccccn3)cc2)c1-c1ccc(F)cc1` displayed a melting point of 215 to 216 °C.

In turn, `O=C(Oc1ccccc1)c1ncn2c1[C@@H]1CCCN1C(=O)c1c(Cl)cccc1-2` had a melting point of 211 to 212 °C.

In the case of `O=[N+]([O-])c1ccccc1S`, the melting point is 40 to 42 °C.

In turn, `CCOC(=O)c1csc2cc(OC)ccc12` had a melting point of 68 to 69 °C.

Compound `CCOc1cccc(-c2cc3n(n2)-c2ccccc2CC3)c1` returned a melting point of 99 to 100 °C.

With `O=Cc1ccccc1-c1nnn[nH]1`, the melting point was found to be 130 °C.

In the case of `O=S(=O)(c1ccc(Cl)cc1)C(c1ccncc1)C1CCCC1` (configuration not stated), the melting point was in the range of 133 to 135 °C.

Consider `Cc1cnc(C#N)n1Cc1ccccc1`, for which the melting point was in the range of 51.5 to 52.5 °C.

The compound `Cc1cc(-c2c(-c3ccc(OCC(F)(F)F)c(C(F)(F)F)c3)nc3cncn3c2C(F)(F)F)ccn1` displayed a melting point of 219 °C.

Take `CCCc1c(COc2ccc(C(=O)c3cccc(-c4nnn[nH]4)c3)cc2)ccc(C(C)=O)c1O`: the melting point was in the range of 208 to 214 °C.

On to `CCCc1c(OCCCOc2ccc(NC(=O)c3nnn[nH]3)cc2)ccc(C(C)=O)c1O`, for which the melting point was 200 to 202 °C.

Compound `CCOC(=O)C(=CNc1ccc(OCC)c(C)n1)C(=O)OCC` came in with a melting point of 132 to 138 °C.

As to `CC(C(=O)O)c1cc(=O)n(Cc2ccc(Cl)cc2)c2ccc(Cl)cc12` (configuration not stated), the melting point is 192 to 194 °C.

`CC(C)(C)c1ccc(C(=O)C(Cl)Cl)cc1` displayed a melting point of 47 to 49 °C.

`COc1c(-n2cccc2)cc(CC(C#N)=CNc2ccccc2)cc1-n1cccc1` registered a melting point of 152 °C.

As for `Fc1ccc(C(=Cc2ccccc2Cl)CBr)cc1`, the melting point worked out at 68 °C.

For the compound `COCCOc1cc(OC)c(C(CC(=O)Nc2cc(C(N)=O)ccc2C(C)(C)C)CC(C)C)cc1Cl` (configuration not stated), the melting point was in the range of 178 to 179 °C.

For `Cc1ccc(C(=O)c2noc(CC(N)=O)n2)cc1`, the melting point was in the range of 169 to 171 °C.

`C=CCc1cc2c(cc1O)CCC(=O)N2CC=C(C)C` had a melting point of 148 to 150 °C.

As for `Cc1cc(OCc2ccc(-c3ccccc3-c3nnn(C(c4ccccc4)(c4ccccc4)c4ccccc4)n3)cc2)c(CCl)c(C)n1`, the melting point is 110 to 112 °C.

`Cc1c(N)cc(C)c2c(=O)[nH]ccc12` showed a melting point of 242 °C.

`O=[N+]([O-])c1ccccc1SNc1nc(OCc2ccc(F)cc2)ncc1F` displayed a melting point of 184 °C.

As for `COc1ccc2c(-c3cccc(F)c3)noc2c1Cl`, the melting point is 149 to 150 °C.

`CC1(C(=O)Nc2cnc(Cl)c(Cl)c2)CC1`: the melting point was in the range of 115 to 117 °C.

In the case of `Cn1c(SSc2c(C(=O)Nc3ccccc3)c3cc(O)ccc3n2C)c(C(=O)Nc2ccccc2)c2cc(O)ccc21`, the melting point lay in the range of 185 to 187 °C.

In the case of `CCCC1=C(C#N)C(c2ccccc2Cl)c2c(n[nH]c2C(C)C)N1` (configuration not stated), the melting point is > 270 °C.

In the case of `O=c1c(-c2ccccc2)c(SCc2ccncc2)oc2cc(OCc3ccccc3)ccc12`, the melting point was in the range of 169 to 170 °C.

Compound `CCN1C(=O)C(C)(C)C(=O)N(C)c2cc(OCCCN3C(=O)C4(OCCO4)c4ccccc43)ccc21` registered a melting point of 143 to 147 °C.

Compound `Cc1ccc2c(NCc3ccc(NC(=O)C4CCN(Cc5ccccc5)CC4)cc3)nc(N3CCCCCC3)nc2c1` came in with a melting point of 66 °C.

For `COC(=O)c1cc(C2OC(=O)CC(C)O2)cnc1C1=NC(C)(C(C)C)C(=O)N1` (configuration not stated), the melting point lay in the range of 65 to 75 °C.

Turning to `CCOC(=O)C1=C(COC2CCN(C)CC2)NC(C)=C(C(=O)OC)C1c1cccc(C(F)(F)F)c1Cl` (configuration not stated), the melting point lay in the range of 180 to 181 °C.

Compound `COc1nc2ccccc2nc1NC(=S)N1CCN(c2cc(F)cc(F)c2)CC1` showed a melting point of 280 to 281 °C.

On to `CCCCCCCCSc1ccc(-c2ncc(CCCCC)cn2)cc1`, for which the melting point worked out at 43 °C.

`CCOP(=O)(OCC)C(F)(F)c1ccc(CN(Cc2ccc(C(F)(F)P(=O)(OCC)OCC)cc2)C(=O)c2ccccc2)cc1` registered a melting point of 87 to 89 °C.

For the compound `CC12CCC(O)CC1CCC1C2CCC2(C)C(C=NNC(=N)N)CCC12O` (configuration not stated), the melting point was in the range of 163 to 165 °C.

For `CC1=Nc2ccc(S(=O)(=O)NC3CCCCC3)cc2S(=O)(=O)N1`, the melting point is 239 to 242 °C.

The compound `CC(=O)NCCCCCC(=O)NC[C@@H]1CN2C(=O)C[C@H]2O1` (racemic) gave a melting point of 117 to 118 °C.

On to `O=c1nc(-c2ccccn2)sc2ccc(Br)cc12`, for which the melting point was in the range of 253 to 254 °C.

The compound `CCOC(=O)C(=O)N(c1ccccc1[N+](=O)[O-])C(C)(C)C` showed a melting point of 73 to 74 °C.

The values are drawn from a melting point compilation (Tetko et al.; mined from patent text by program, amines drawn as free bases though some values may be those of a salt).
